Legend:
Entamoeba histolytica = assay: Antiamoebic activity against Entamoeba histolytica HM-1:IMSS after 72 hr by eosin stain-based spectrophotometric analysis; assay type: functional, organism-based
MCF7 = assay: Cytotoxicity against Homo sapiens (human) MCF7 cells after 48 hr by MTT assay; assay type: cell-based; conditions: MCF7, 48 h

Row | SMILES | IC50 (Entamoeba histolytica) [nM] | IC50 (MCF7) [nM]
1 | S=c1oc(-c2ccncc2)nn1CN1CCN(Cc2ccccc2)CC1 | 3400 | –
2 | COc1ccccc1N1CCN(Cn2nc(-c3ccncc3)oc2=S)CC1 | 1060 | > 250000
3 | Fc1ccc(N2CCN(Cn3nc(-c4ccncc4)oc3=S)CC2)cc1 | 245 | > 250000
4 | S=c1oc(-c2ccncc2)nn1CN1CCN(Cc2ccc3c(c2)OCO3)CC1 | 3620 | –
5 | S=c1oc(-c2ccncc2)nn1CN1CCN(c2cccc(Cl)c2)CC1 | 2570 | –
6 | S=c1oc(-c2ccncc2)nn1CN1CCN(c2ccccc2)CC1 | 3470 | –
7 | FC(F)(F)c1ccccc1N1CCN(Cn2nc(-c3ccncc3)oc2=S)CC1 | 2870 | –
8 | S=c1oc(-c2ccncc2)nn1CN1CCN(c2ccccn2)CC1 | 2820 | –
9 | CCN1CCN(Cn2nc(-c3ccncc3)oc2=S)CC1 | 327 | > 250000
10 | CN1CCN(Cn2nc(-c3ccncc3)oc2=S)CC1 | 5110 | –
